Test results reported in ChEMBL document CHEMBL4507276 (2021).

Experiments:
Details in all cases: Compound concentration 1000.0 nM
[1] = molecular target: T1, Serine/threonine-protein kinase 4 (Homo sapiens) (UniProt Q13043)
T1 sequence (whole entry): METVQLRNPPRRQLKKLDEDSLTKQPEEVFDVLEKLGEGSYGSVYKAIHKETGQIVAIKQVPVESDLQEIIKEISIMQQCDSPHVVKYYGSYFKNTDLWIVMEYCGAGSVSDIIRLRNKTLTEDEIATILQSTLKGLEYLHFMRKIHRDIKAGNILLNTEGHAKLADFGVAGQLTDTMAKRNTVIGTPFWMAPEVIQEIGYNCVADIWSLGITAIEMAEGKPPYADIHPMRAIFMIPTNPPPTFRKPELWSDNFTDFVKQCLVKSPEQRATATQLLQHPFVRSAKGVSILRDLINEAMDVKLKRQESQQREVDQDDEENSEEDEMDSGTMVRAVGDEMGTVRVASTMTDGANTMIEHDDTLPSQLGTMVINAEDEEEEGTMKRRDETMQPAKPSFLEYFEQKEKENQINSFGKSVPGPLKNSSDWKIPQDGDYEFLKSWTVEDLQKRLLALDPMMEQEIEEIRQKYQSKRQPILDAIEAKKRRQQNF

[2] = test system: Mast/stem cell growth factor receptor Kit (Homo sapiens), P10721 [A829P]
Chain of Mast/stem cell growth factor receptor Kit (Homo sapiens), P10721 [A829P] (P10721 whole entry A829P): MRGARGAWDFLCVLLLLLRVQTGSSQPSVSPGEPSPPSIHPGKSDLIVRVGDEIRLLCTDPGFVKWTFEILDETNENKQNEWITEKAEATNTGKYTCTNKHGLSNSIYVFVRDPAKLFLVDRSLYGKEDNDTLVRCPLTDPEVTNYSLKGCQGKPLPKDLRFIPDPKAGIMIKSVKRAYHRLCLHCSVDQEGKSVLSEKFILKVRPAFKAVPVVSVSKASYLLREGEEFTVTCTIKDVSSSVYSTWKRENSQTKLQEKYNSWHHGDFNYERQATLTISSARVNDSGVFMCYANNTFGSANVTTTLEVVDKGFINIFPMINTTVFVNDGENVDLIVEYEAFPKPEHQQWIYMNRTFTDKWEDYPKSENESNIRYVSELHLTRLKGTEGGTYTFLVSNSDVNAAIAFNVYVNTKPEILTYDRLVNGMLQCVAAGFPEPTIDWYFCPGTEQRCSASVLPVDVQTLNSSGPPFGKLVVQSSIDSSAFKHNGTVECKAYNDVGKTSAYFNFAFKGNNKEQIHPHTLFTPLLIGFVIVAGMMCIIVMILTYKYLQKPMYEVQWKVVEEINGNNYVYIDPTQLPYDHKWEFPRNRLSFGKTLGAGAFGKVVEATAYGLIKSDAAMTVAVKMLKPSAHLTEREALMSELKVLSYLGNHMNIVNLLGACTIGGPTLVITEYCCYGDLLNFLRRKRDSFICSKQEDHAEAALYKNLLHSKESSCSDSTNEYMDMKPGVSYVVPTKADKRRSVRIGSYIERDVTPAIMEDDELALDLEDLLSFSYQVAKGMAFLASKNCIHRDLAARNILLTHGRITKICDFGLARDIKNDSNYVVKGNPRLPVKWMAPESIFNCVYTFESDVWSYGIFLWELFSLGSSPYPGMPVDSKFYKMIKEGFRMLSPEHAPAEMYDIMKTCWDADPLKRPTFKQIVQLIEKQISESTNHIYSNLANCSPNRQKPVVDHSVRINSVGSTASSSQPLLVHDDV

[3] = molecular target: Ribosomal protein S6 kinase alpha-2 (Homo sapiens) (UniProt Q15349)
[4] = molecular target: Serine/threonine-protein kinase tousled-like 2 (Homo sapiens) (UniProt Q86UE8)
Chain of Serine/threonine-protein kinase tousled-like 2 (Homo sapiens) (Q86UE8 whole entry, looked up): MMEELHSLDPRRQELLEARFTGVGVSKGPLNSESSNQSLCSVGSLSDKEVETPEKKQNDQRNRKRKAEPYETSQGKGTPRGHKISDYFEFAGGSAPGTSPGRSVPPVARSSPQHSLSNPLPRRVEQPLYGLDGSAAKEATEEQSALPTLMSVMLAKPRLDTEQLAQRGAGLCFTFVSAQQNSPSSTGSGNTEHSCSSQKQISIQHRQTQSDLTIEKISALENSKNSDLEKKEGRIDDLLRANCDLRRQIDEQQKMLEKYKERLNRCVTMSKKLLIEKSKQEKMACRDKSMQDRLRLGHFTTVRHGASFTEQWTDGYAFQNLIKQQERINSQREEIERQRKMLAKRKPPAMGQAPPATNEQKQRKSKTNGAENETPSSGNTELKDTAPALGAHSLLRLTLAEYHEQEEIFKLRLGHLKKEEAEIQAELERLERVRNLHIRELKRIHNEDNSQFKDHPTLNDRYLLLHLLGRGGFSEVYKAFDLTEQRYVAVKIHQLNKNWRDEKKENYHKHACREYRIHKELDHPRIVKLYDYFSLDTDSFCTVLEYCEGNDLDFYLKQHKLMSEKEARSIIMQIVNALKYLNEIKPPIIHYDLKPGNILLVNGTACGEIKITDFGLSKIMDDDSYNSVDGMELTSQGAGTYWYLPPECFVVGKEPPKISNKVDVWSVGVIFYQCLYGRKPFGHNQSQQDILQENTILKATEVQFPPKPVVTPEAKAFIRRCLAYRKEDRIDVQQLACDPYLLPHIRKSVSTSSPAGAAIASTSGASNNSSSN

[5] = molecular target: Protein-tyrosine kinase 2-beta (Homo sapiens) (UniProt Q14289)
Chain of Protein-tyrosine kinase 2-beta (Homo sapiens) (Q14289 whole entry, looked up): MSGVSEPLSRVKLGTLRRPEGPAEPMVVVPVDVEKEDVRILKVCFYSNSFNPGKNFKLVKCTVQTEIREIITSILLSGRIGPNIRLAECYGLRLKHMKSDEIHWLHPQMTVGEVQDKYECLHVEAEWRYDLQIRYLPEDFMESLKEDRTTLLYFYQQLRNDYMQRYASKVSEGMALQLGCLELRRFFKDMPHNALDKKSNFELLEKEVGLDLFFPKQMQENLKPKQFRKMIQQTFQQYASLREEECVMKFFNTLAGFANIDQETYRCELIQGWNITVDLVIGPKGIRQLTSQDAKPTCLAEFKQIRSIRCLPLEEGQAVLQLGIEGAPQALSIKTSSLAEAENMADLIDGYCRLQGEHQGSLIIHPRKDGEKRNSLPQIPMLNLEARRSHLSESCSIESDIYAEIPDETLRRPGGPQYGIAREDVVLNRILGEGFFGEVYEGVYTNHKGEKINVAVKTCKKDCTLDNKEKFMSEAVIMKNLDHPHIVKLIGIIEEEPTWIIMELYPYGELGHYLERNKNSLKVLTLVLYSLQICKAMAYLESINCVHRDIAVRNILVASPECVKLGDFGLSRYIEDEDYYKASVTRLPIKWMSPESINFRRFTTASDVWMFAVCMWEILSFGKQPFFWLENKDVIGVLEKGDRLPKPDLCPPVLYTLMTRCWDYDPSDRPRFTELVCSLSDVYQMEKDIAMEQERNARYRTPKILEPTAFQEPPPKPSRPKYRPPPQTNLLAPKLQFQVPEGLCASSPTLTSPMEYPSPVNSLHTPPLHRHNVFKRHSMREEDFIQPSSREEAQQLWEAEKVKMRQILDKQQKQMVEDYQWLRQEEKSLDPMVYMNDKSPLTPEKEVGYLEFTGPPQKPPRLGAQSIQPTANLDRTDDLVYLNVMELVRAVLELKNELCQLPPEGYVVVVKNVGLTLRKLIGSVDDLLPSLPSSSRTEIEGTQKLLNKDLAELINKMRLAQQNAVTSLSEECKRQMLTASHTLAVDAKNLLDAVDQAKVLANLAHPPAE

[6] = molecular target: Ephrin type-A receptor 5 (Homo sapiens) (UniProt P54756)
[7] = molecular target: Mitogen-activated protein kinase 3 (Homo sapiens) (UniProt P27361)
[8] = molecular target: Calcium/calmodulin-dependent protein kinase type II subunit gamma (Homo sapiens) (UniProt Q13555)
[9] = molecular target: Calcium/calmodulin-dependent protein kinase kinase 1 (Homo sapiens) (UniProt Q8N5S9)
Chain of Calcium/calmodulin-dependent protein kinase kinase 1 (Homo sapiens) (Q8N5S9 whole entry, looked up): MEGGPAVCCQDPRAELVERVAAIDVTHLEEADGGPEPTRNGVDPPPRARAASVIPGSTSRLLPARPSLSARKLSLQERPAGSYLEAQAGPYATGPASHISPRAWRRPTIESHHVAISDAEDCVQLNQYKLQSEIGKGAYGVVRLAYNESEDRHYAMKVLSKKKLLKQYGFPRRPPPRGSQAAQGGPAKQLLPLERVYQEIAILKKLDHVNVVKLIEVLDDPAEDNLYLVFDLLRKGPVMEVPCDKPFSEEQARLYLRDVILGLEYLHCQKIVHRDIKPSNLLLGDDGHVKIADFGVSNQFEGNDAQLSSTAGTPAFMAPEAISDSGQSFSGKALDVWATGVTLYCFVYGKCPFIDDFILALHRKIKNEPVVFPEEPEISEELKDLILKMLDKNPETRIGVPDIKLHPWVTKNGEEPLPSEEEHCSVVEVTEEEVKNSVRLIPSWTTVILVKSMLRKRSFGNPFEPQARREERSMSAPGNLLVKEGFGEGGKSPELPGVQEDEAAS

[10] = molecular target: Serine/threonine-protein kinase Chk2 (Homo sapiens) (UniProt O96017)
Chain of Serine/threonine-protein kinase Chk2 (Homo sapiens) (O96017 whole entry): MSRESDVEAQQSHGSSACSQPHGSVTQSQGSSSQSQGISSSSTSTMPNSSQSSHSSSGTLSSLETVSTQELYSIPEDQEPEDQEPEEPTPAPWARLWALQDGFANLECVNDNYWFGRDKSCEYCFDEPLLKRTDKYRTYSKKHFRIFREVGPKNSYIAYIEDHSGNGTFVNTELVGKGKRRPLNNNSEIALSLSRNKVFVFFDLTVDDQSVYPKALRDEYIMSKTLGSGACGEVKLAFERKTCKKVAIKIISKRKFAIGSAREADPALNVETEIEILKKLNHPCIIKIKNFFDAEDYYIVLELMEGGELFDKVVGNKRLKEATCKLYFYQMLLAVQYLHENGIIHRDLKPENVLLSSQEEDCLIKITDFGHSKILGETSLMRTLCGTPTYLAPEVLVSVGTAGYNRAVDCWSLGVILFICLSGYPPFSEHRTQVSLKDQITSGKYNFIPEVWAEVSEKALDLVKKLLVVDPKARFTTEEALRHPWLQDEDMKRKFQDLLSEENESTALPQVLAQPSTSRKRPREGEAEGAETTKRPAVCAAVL

[11] = molecular target: Tyrosine-protein kinase JAK1 (Homo sapiens) (UniProt P23458)
Chain of Tyrosine-protein kinase JAK1 (Homo sapiens) (P23458 whole entry): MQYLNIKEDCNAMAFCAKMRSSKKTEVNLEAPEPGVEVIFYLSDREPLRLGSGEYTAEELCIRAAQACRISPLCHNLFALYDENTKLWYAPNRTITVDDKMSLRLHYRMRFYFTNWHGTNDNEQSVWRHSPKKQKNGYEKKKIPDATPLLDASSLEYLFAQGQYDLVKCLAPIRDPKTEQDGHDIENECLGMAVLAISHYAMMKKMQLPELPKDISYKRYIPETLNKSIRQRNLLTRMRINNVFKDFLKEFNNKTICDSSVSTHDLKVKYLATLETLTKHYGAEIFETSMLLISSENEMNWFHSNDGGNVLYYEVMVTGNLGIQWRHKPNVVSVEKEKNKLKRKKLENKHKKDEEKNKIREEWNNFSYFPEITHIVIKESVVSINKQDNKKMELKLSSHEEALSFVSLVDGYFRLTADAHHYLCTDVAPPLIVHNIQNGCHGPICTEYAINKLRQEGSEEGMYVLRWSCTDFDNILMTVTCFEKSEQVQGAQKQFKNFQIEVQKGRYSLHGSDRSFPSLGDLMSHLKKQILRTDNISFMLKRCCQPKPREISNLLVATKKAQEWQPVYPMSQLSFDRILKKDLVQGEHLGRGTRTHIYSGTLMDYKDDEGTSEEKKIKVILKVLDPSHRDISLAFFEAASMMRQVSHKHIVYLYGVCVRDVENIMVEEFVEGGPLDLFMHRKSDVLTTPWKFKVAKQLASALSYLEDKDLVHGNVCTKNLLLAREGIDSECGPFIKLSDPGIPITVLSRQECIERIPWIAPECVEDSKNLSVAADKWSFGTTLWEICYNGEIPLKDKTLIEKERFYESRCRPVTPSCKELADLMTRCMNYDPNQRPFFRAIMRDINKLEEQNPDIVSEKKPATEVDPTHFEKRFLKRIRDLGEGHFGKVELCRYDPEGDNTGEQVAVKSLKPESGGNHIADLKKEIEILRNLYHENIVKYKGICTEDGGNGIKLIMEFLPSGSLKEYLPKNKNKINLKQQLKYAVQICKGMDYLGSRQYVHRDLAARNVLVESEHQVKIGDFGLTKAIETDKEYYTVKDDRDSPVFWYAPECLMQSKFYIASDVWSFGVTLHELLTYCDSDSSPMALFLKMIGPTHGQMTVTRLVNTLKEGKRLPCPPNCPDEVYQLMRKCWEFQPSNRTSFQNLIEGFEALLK

[12] = molecular target: Rhodopsin kinase GRK1 (Homo sapiens) (UniProt Q15835)
[13] = molecular target: T2, Interleukin-1 receptor-associated kinase 4 (Homo sapiens) (UniProt Q9NWZ3)
T2 sequence (whole entry): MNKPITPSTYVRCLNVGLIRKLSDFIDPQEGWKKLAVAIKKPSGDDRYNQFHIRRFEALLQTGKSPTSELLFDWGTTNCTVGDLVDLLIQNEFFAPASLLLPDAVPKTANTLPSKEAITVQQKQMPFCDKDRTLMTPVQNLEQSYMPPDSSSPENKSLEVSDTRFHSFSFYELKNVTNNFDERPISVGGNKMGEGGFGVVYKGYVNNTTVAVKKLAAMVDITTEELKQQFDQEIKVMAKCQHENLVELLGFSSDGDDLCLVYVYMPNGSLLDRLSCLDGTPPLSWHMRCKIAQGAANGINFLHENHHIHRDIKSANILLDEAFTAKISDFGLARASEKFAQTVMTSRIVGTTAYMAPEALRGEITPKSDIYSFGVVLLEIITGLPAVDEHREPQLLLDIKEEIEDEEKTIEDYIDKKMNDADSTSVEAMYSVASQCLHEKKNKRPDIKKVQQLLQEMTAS

[14] = molecular target: Serine/threonine-protein kinase MARK2 (Homo sapiens) (UniProt Q7KZI7)
[15] = molecular target: T3, Serine/threonine-protein kinase Nek2 (Homo sapiens) (UniProt P51955)
T3 sequence (whole entry): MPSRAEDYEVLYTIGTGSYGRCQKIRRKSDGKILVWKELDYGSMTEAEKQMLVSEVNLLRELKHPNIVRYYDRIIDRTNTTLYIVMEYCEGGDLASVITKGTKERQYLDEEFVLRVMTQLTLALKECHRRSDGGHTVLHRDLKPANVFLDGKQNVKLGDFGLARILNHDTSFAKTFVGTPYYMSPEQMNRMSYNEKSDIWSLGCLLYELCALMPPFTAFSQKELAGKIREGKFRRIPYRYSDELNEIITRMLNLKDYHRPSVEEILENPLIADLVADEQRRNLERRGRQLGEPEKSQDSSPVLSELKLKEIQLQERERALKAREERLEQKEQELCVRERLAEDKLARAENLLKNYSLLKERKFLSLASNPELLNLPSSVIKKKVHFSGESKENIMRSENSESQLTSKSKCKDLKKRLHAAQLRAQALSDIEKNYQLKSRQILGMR

[16] = molecular target: T4, Serine/threonine-protein kinase 3 (Homo sapiens) (UniProt Q13188)
T4 sequence (whole entry): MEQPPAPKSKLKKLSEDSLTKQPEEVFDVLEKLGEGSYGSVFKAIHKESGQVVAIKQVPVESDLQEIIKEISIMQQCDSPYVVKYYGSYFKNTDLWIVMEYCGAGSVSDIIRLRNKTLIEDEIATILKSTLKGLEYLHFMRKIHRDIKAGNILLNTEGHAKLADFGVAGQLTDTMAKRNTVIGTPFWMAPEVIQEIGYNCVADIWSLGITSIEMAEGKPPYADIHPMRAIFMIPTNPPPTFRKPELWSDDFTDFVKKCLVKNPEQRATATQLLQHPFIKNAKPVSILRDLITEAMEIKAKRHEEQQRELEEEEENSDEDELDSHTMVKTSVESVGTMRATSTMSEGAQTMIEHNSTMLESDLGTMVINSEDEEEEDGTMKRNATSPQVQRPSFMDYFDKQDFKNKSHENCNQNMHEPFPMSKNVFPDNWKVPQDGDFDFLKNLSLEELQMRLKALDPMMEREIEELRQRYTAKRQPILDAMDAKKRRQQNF

Structure (SMILES)	residual activity [1] [%]	residual activity [2] [%]	residual activity [3] [%]	residual activity [4] [%]	residual activity [5] [%]	residual activity [6] [%]	residual activity [7] [%]	residual activity [8] [%]	residual activity [9] [%]	residual activity [10] [%]	residual activity [11] [%]	residual activity [12] [%]	residual activity [13] [%]	residual activity [14] [%]	residual activity [15] [%]	residual activity [16] [%]
CN(C)C(=O)Cn1cc(-c2nc(C3(c4ccc(-c5cnc(N)nc5)cc4)CC3)no2)cn1 [BI 0153]	90	93	100	100	90	41	79	98	100	100	76	74	84	92	100	100
CN(C)C(=O)Cn1cc(-c2nc([C@@](C)(c3ccc(-c4cnc(N)nc4)cc3)C3CC3)no2)cn1 [BI 665915]	90	80	100	100	87	100	100	100	100	100	100	100	85	100	97	100
